Assay results from PMC8213057, “Targeting ALK2: An Open Science Approach to Developing Therapeutics for the Treatment of Diffuse Intrinsic Pontine Glioma” (Journal of Medicinal Chemistry, 2020).

Experiments:
[1] = target: AKT2 (Homo sapiens, UniProt P31751); details: 1 μM; Run 1, Run 2
[2] = target: CDK5/P25 (Homo sapiens, UniProt Q00535); details: 1 μM; Run 1, Run 2
[3] = target: T1, EPHA1 (Homo sapiens, UniProt P21709); details: 1 μM; Run 1, Run 2
T1 sequence (P21709 26-976): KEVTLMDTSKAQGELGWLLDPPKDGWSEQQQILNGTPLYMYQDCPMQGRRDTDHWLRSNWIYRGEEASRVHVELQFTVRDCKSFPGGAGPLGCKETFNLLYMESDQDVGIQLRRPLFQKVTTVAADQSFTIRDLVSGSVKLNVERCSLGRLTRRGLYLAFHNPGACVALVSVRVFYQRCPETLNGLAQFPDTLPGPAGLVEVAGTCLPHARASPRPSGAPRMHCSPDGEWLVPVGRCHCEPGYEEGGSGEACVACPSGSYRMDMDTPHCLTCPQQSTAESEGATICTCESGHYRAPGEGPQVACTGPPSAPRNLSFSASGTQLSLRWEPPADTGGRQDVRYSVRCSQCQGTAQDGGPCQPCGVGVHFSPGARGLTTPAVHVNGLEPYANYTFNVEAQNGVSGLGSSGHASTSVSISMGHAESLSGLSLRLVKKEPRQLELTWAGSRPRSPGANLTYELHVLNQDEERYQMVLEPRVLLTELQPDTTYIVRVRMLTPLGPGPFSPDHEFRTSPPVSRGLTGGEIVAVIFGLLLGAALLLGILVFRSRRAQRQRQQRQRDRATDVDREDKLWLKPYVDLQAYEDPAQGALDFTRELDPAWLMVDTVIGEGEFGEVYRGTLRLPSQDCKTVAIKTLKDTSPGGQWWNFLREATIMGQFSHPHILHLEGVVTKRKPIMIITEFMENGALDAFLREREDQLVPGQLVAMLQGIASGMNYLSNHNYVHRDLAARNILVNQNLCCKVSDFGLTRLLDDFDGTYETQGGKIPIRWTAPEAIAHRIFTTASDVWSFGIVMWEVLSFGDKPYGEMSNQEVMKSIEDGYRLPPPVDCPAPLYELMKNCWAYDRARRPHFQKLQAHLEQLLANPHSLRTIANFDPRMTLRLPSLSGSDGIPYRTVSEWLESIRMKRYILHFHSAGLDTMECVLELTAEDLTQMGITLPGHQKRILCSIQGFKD

[4] = target: JAK1 (Homo sapiens, UniProt P23458); details: 1 μM; Run 1, Run 2
[5] = target: SGK2 (Homo sapiens, UniProt Q9HBY8); details: 1 μM; Run 1, Run 2
[6] = target: SIK3 (Homo sapiens, UniProt Q9Y2K2); details: 1 μM; Run 1, Run 2
SIK3, sequence (Q9Y2K2 whole entry): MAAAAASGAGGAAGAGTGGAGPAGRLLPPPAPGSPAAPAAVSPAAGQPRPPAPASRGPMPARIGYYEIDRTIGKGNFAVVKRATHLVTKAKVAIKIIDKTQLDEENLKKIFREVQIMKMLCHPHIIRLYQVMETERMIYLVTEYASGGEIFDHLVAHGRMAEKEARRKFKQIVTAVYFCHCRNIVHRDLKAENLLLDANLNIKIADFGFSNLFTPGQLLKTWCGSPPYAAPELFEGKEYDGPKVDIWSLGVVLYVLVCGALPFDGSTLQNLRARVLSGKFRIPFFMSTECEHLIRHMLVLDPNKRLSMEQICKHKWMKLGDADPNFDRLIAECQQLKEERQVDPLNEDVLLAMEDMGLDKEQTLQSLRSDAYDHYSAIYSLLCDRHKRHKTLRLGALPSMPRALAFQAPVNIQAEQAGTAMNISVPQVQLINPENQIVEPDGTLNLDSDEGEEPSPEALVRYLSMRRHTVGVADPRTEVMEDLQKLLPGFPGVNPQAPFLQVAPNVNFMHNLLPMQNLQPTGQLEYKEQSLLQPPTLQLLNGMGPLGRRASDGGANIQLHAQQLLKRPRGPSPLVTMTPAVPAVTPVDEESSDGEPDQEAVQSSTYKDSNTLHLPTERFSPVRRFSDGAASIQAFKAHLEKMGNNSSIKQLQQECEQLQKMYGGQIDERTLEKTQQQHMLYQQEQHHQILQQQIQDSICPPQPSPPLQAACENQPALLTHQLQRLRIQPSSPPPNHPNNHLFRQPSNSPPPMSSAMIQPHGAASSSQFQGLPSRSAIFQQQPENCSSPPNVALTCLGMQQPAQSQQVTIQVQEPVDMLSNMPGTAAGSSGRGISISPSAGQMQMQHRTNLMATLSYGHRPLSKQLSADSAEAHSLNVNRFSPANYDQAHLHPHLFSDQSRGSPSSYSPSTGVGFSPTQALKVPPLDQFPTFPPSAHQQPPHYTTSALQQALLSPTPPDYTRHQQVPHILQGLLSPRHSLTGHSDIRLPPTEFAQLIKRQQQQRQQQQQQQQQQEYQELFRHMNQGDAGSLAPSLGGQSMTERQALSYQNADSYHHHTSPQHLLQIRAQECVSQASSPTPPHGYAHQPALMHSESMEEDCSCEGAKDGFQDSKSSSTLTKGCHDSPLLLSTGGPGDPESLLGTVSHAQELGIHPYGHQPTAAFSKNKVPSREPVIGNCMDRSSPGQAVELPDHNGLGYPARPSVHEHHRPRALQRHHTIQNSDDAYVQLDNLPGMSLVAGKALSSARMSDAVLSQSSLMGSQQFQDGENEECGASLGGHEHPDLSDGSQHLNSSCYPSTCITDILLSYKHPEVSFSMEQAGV

[7] = target: BRK (Homo sapiens, UniProt Q13882); test: biochemical; details: read-out: % enzyme activity, 1 μM; Run 1, Run 2
BRK, sequence (Q13882 whole entry): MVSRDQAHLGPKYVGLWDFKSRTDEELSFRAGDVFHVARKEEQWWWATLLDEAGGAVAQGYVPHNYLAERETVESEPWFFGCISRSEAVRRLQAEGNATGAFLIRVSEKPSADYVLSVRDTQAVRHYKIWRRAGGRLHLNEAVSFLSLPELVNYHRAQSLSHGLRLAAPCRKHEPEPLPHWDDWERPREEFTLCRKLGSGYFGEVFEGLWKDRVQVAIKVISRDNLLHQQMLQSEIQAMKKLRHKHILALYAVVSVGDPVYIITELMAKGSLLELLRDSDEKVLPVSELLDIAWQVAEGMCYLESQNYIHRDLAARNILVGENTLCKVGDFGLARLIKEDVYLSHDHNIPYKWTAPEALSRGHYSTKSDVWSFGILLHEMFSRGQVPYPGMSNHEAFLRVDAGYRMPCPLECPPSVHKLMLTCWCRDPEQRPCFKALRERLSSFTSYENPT

[8] = target: T2, RIPK4 (Homo sapiens, UniProt P57078); test: biochemical; details: read-out: % enzyme activity, 1 μM; Run 1, Run 2
T2 sequence (P57078 1-832): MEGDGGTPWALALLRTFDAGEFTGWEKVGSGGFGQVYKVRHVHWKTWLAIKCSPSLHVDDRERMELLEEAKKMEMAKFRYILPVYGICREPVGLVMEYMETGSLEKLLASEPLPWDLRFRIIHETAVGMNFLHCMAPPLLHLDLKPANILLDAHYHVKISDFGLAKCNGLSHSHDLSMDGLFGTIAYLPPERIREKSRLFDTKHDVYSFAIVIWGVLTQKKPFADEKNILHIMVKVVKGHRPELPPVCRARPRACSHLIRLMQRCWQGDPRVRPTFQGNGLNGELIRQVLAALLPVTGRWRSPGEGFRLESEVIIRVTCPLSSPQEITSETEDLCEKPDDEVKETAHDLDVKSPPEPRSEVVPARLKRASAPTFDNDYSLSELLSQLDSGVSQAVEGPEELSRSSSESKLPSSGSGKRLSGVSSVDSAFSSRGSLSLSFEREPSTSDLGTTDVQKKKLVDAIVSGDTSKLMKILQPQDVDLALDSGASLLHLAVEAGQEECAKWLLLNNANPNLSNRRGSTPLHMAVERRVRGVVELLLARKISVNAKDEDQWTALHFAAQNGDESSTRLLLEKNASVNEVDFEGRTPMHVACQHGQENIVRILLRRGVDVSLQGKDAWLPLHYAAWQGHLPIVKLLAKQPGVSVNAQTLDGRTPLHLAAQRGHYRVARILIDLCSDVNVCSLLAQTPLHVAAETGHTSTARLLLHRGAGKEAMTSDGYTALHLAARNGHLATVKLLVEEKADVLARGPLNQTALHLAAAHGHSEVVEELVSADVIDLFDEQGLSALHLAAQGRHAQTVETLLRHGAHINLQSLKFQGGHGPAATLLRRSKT

[9] = target: ROS/ROS1 (Homo sapiens, UniProt P08922); test: biochemical; details: read-out: % enzyme activity, 1 μM; Run 1, Run 2
ROS/ROS1, sequence (P08922 28-2347): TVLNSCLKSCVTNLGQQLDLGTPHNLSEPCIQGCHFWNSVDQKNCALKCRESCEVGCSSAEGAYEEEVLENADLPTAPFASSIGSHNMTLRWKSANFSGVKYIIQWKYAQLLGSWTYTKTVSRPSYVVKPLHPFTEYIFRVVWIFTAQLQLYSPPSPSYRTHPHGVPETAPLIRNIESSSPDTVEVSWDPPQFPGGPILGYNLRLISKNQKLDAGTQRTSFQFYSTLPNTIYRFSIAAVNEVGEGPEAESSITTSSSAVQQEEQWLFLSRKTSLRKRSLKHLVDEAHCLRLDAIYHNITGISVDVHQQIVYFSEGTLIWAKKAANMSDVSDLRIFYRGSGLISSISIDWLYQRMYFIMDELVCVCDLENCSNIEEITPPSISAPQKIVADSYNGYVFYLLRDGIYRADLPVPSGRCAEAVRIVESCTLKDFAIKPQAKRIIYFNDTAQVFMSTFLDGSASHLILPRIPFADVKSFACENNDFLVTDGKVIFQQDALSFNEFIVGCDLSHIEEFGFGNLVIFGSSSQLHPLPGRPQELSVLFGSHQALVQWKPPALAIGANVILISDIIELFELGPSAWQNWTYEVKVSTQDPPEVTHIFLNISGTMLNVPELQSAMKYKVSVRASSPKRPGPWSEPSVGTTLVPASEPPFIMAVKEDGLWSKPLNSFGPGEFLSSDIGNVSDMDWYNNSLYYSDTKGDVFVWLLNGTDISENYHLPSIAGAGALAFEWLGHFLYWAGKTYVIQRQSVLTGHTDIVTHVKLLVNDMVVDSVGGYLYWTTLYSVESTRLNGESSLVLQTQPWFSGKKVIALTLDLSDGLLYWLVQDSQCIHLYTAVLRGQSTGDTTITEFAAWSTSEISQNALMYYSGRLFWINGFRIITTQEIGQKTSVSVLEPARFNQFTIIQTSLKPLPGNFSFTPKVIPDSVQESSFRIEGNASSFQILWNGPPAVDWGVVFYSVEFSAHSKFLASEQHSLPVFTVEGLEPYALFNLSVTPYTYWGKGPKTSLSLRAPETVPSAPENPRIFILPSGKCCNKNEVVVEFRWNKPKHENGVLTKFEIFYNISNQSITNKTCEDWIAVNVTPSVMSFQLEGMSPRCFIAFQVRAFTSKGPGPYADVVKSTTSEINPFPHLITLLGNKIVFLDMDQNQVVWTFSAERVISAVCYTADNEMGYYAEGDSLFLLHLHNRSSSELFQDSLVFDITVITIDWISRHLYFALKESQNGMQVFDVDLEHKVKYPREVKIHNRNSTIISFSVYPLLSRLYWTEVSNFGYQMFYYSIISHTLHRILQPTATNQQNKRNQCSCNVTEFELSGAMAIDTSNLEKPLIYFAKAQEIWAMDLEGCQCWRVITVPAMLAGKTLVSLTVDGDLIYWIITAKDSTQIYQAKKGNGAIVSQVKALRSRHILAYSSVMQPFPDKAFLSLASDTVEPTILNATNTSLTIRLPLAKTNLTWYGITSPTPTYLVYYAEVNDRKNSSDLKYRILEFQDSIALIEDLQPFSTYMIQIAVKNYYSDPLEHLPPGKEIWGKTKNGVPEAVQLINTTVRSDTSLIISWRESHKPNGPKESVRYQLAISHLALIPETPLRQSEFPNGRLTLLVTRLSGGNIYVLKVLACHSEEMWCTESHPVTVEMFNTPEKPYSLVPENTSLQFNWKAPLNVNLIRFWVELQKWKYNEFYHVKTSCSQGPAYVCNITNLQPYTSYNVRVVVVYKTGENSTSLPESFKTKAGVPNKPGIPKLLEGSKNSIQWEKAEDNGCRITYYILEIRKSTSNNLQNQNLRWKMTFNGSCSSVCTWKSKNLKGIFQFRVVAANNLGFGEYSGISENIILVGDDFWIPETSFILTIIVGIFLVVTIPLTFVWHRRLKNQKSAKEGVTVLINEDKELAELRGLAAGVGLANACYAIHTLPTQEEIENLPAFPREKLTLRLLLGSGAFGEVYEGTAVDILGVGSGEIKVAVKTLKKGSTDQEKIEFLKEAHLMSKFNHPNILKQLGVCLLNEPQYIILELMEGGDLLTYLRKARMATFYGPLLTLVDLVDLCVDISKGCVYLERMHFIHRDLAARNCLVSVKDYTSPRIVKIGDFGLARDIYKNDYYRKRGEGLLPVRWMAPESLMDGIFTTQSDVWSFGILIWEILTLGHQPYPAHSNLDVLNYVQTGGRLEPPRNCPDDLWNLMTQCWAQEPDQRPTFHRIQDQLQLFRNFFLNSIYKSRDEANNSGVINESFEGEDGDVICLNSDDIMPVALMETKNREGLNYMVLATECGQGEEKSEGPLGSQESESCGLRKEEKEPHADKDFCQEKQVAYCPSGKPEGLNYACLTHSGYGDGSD

AKT2, sequence (P31751 whole entry): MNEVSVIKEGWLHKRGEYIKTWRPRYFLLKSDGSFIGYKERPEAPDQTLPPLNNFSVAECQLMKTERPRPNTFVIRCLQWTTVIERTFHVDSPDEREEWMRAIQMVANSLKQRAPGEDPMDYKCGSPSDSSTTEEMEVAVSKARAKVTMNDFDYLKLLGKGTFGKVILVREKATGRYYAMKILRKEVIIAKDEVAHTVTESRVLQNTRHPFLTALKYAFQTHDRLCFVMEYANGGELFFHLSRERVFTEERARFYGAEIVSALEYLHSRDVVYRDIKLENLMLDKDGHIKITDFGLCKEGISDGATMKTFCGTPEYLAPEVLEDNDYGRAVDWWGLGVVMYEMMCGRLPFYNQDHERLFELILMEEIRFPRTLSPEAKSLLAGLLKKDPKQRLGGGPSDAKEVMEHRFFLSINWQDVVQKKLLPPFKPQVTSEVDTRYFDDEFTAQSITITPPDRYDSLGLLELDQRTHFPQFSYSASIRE
CDK5/P25, sequence (Q00535 whole entry): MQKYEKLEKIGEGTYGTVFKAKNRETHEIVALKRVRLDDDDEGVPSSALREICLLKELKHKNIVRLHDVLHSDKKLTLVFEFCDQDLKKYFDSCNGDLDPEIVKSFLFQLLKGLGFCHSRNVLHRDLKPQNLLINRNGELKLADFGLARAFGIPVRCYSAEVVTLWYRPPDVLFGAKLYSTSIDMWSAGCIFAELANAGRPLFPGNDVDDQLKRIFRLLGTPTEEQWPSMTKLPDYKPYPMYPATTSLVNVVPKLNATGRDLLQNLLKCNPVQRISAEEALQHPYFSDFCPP
CDK5/P25, sequence (Q15078 99-307 partner limits assumed): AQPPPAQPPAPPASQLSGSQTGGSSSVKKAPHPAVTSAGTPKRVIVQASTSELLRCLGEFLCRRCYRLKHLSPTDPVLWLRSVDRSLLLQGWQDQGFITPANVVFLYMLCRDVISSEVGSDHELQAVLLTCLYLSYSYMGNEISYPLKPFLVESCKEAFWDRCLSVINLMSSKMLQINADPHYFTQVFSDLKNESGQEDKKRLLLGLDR

Compound	% enzyme activity [1] [%]	% enzyme activity [2] [%]	% enzyme activity [3] [%]	% enzyme activity [4] [%]	% enzyme activity [5] [%]	% enzyme activity [6] [%]	remaining activity at 1 µM [7] [%]	remaining activity at 1 µM [8] [%]	remaining activity at 1 µM [9] [%]
COc1cc(-c2cncc(-c3ccc(N4CCN(C)CC4)cc3)c2C)cc(F)c1C(N)=O [Compound 26a, 2-Fluoro-6-methoxy-4-(4-methyl-5-(4-(4-methylpiperazin-1-yl)phenyl)pyridin-3-yl)benzamide]	91.70	91.77	96.36	99.53	100.43	58.19	58.3	75.5	87.7
COc1cc(-c2cncc(-c3ccc(N4C[C@@H](C)N(C)[C@@H](C)C4)cc3)c2C)cc(F)c1C(N)=O [Compound 26c, 2-Fluoro-6-methoxy-4-(4-methyl-5-(4-((3R,5S)-3,4,5-trimethylpiperazin-1-yl)phenyl)pyridin-3-yl)benzamide]	92.08	94.09	89.93	99.07	100.91	82.93	73.9	86.1	97.4
